Results from patent publication US20230391760A1, “HETEROCYCLIC GLP-1 AGONISTS” (Gasherbrum Bio, Inc., priority 2020, published 2023).

Biological target: GLP-1 Receptor (Homo sapiens, UniProt P43220)
Assay: GLP-1R agonist cAMP stimulation assay (HEK293/GLP1R/CRE-LUC cells, cAMP dynamic 2 Kit)
Assay type: cell-based
Conditions: HEK293/CRE-Luc cell line stably expressing the GLP-1 Receptor, 30 min at 37° C.
Protocol: Activation of GLP-1 receptor is known to stimulate cyclic AMP (cAMP) production in cells which indicates primary coupling to the Gαs subunit of the G protein heterotrimeric complex. […] To optimize functional activity directed toward Gαs coupling, a HEK293/CRE-Luc cell line developed by HDB stably expressing the GLP-1 Receptor was used. 200×concentration of compound working solutions were prepared (Agilent Technologies Bravo) with 1/2 log serial dilution in 384-well Echo LDV plate (Labcyte, Cat #LP-0200). 50 nL/well 200× concentration of compound working solutions were moved to 384-well white low volume plate (Greiner,Cat #784075) using Labcyte ECHO550. 1×10^5 cells/mL HEK293/GLP1R/CRE-LUC(HD Biosciences) cell suspensions prepared with assay buffer[DPBS containing 0.5 mM IBMX(Sigma, Cat #15879) and 0.1% BSA (GENVIEW, Cat #FA016-100 g)], 10 uL cell suspensions were added to each well of previous generated assay plate which already contains 50 nl compound at 200×concentration using ThermoFisher Multidrop Combi (1000 cells/well). Seal the plate and incubate at 37° C. with 5% CO2 for 30 min. After incubation the cAMP assay signal was generated using cAMP dynamic 2 Kit (Cisbio). 5 μL cAMP-d2 working solution was added to each well, followed with 5 μL Anti-cAMP antibody-cryptate working solution added to each well using ThermoFisher Multidrop Combi. Incubate at room temperature for 1 hour protected from light.

GLP-1 Receptor, sequence (P43220 24-463, species assumed): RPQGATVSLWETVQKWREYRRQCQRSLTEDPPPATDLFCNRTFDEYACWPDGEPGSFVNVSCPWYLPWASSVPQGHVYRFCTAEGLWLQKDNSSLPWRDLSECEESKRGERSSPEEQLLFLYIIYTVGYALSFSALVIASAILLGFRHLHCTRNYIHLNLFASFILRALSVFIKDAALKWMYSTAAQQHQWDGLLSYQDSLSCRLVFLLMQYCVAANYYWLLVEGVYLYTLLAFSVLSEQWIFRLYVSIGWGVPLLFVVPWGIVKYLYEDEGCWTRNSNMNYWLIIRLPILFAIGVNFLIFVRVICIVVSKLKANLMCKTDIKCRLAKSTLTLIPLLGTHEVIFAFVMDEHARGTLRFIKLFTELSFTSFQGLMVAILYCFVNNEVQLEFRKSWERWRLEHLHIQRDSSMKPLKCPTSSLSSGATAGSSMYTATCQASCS

EC50 [nM]	SMILES
38.2	O=C(O)CCc1ccc2c(c1)nc(CN1CC=C(c3cccc(OCc4ccc(Cl)cc4F)n3)CC1)n2C[C@@H]1CCO1 [Compound 113a, (S)-3-(2-((6-((4-chloro-2-fluorobenzyl)oxy)-3′,6′-dihydro-[2,4′-bipyridin]-1′(2′H)-yl)methyl)-1-(oxetan-2-ylmethyl)-1H-benzo[d]imidazol-5-yl)propanoic acid]
58.9	CC(=O)Nc1ccc2c(c1)nc(CN1CCC(c3cccc4c3OC[C@@H](c3ccc(Cl)cc3F)O4)CC1)n2C[C@@H]1CCO1 [Compound 114a, N-(2-((4-((R)-2-(4-chloro-2-fluorophenyl)-2,3-dihydrobenzo[b][1,4]dioxin-5-yl)piperidin-1-yl)methyl)-1-(((S)-oxetan-2-yl)methyl)-1H-benzo[d]imidazol-5-yl)acetamide]
1.17	CC(=O)Nc1ccc2c(c1)nc(CN1CCC(c3cccc4c3OC(C)(c3ccc(Cl)cc3F)O4)CC1)n2C[C@@H]1CCO1 (stereo partly drawn) [Compound 115a, N-(2-((4-(2-(4-chloro-2-fluorophenyl)-2-methylbenzo[d][1,3]dioxol-4-yl)piperidin-1-yl)methyl)-1-((S)-oxetan-2-ylmethyl)-1H-benzo[d]imidazol-5-yl)acetamide]
10	O=S1(=O)CCCN1c1ccc2c(c1)nc(CN1CCC(c3cccc(OCc4ccc(Cl)cc4F)n3)CC1)n2C[C@@H]1CCO1 [Compound 118a, (S)-2-(2-((4-(6-((4-chloro-2-fluorobenzyl)oxy)pyridin-2-yl)piperidin-1-yl)methyl)-1-(oxetan-2-ylmethyl)-1H-benzo[d]imidazol-5-yl)isothiazolidine 1,1-dioxide]
7.2	O=C1CCCN1c1ccc2c(c1)nc(CN1CCC(c3cccc(OCc4ccc(Cl)cc4F)n3)CC1)n2C[C@@H]1CCO1 [Compound 119a, 1-{2-[(4-{6-[(4-chloro-2-fluorophenyl)methoxy]pyridin-2-yl}piperidin-1-yl)methyl]-1-{[(2S)-oxetan-2-yl]methyl}-1H-1,3-benzodiazol-5-yl}pyrrolidin-2-one]
4	O=C1OCCN1c1ccc2c(c1)nc(CN1CCC(c3cccc(OCc4ccc(Cl)cc4F)n3)CC1)n2C[C@@H]1CCO1 [Compound 120a, 3-{2-[(4-{6-[(4-chloro-2-fluorophenyl)methoxy]pyridin-2-yl}piperidin-1-yl)methyl]-1-{[(2S)-oxetan-2-yl]methyl}-1H-1,3-benzodiazol-5-yl}-1,3-oxazolidin-2-one]
2.4	O=c1[nH]ccn1-c1ccc2c(c1)nc(CN1CCC(c3cccc(OCc4ccc(Cl)cc4F)n3)CC1)n2C[C@@H]1CCO1 [Compound 122a, 1-{2-[(4-{6-[(4-chloro-2-fluorophenyl)methoxy]pyridin-2-yl}piperidin-1-yl)methyl]-1-{[(2S)-oxetan-2-yl]methyl}-1H-1,3-benzodiazol-5-yl}-2,3-dihydro-1H-imidazol-2-one]
4	O=C1NCCN1c1ccc2c(c1)nc(CN1CCC(c3cccc(OCc4ccc(Cl)cc4F)n3)CC1)n2C[C@@H]1CCO1 [Compound 123a, 1-{2-[(4-{6-[(4-chloro-2-fluorophenyl)methoxy]pyridin-2-yl}piperidin-1-yl)methyl]-1-{[(2S)-oxetan-2-yl]methyl}-1H-1,3-benzodiazol-5-yl}imidazolidin-2-one]
0.78	Cn1ccc(-c2ccc3c(c2)nc(CN2CCC(c4cccc(OCc5ccc(Cl)cc5F)n4)CC2)n3C[C@@H]2CCO2)n1 [Compound 124a, 2-[(4-{6-[(4-chloro-2-fluorophenyl)methoxy]pyridin-2-yl}piperidin-1-yl)methyl]-5-(1-methyl-1H-pyrazol-3-yl)-1-{[(2S)-oxetan-2-yl]methyl}-1H-1,3-benzodiazole]
0.056	Fc1cc(Cl)ccc1COc1cccc(C2CCN(Cc3nc4cc(-c5nnn[nH]5)ccc4n3C[C@@H]3CCO3)CC2)n1 [Compound 125a, 2-[(4-{6-[(4-chloro-2-fluorophenyl)methoxy]pyridin-2-yl}piperidin-1-yl)methyl]-1-{[(2S)-oxetan-2-yl]methyl}-5-(1H-1,2,3,4-tetrazol-5-yl)-1H-1,3-benzodiazole]
0.56	O=C(Nc1ccc2c(c1)nc(CN1CCC(c3cccc(OCc4ccc(Cl)cc4F)n3)CC1)n2C[C@@H]1CCO1)C1CCO1 (stereo partly drawn) [Compound 129a, N-{2-[(4-{6-[(4-chloro-2-fluorophenyl)methoxy]pyridin-2-yl}piperidin-1-yl)methyl]-1-{[(2S)-oxetan-2-yl]methyl}-1H-1,3-benzodiazol-5-yl}oxetane-2-carboxamide]
5.1	O=C(Cc1ccccc1)Nc1ccc2c(c1)nc(CN1CCC(c3cccc(OCc4ccc(Cl)cc4F)n3)CC1)n2C[C@@H]1CCO1 [Compound 130a, N-{2-[(4-{6-[(4-chloro-2-fluorophenyl)methoxy]pyridin-2-yl}piperidin-1-yl)methyl]-1-{[(2S)-oxetan-2-yl]methyl}-1H-1,3-benzodiazol-5-yl}-2-phenylacetamide]
6.3	CC(=O)Nc1cnc2c(c1)nc(CN1CCC(c3cccc(OCc4ccc(Cl)cc4F)n3)CC1)n2C[C@@H]1CCO1 [Compound 131a, N-{2-[(4-{6-[(4-chloro-2-fluorophenyl)methoxy]pyridin-2-yl}piperidin-1-yl)methyl]-3-{[(2S)-oxetan-2-yl]methyl}-3H-imidazo[4,5-b]pyridin-6-yl}acetamide]
0.64	CC(=O)Nc1ccc2c(c1)nc(CN1CC=C(c3cccc(OCc4ccc(Cl)cc4F)n3)CC1)n2C[C@@H]1CCO1 [Compound 135a, N-{2-[(4-{6-[(4-chloro-2-fluorophenyl)methoxy]pyridin-2-yl}-1,2,3,6-tetrahydropyridin-1-yl)methyl]-1-{[(2S)-oxetan-2-yl]methyl}-1H-1,3-benzodiazol-5-yl}acetamide]
0.16	CNC(=O)Nc1ccc2c(c1)nc(CN1CCC(c3cccc(OCc4ccc(Cl)cc4F)n3)CC1)n2C[C@@H]1CCO1 [Compound 145a, 1-{2-[(4-{6-[(4-chloro-2-fluorophenyl)methoxy]pyridin-2-yl}piperidin-1-yl)methyl]-1-{[(2S)-oxetan-2-yl]methyl}-1H-1,3-benzodiazol-5-yl}-3-methylurea]
0.49	COC(=O)Nc1ccc2c(c1)nc(CN1CCC(c3cccc(OCc4ccc(Cl)cc4F)n3)CC1)n2C[C@@H]1CCO1 [Compound 146a, methyl N-{2-[(4-{6-[(4-chloro-2-fluorophenyl)methoxy]pyridin-2-yl}piperidin-1-yl)methyl]-1-{[(2S)-oxetan-2-yl]methyl}-1H-1,3-benzodiazol-5-yl}carbamate]
4.8	Fc1cc(Cl)ccc1COc1cccc(C2CCN(Cc3nc4cc(-c5cn[nH]n5)ccc4n3C[C@@H]3CCO3)CC2)n1 [Compound 149a, 2-[(4-{6-[(4-chloro-2-fluorophenyl)methoxy]pyridin-2-yl}piperidin-1-yl)methyl]-1-{[(2S)-oxetan-2-yl]methyl}-5-(2H-1,2,3-triazol-4-yl)-1H-1,3-benzodiazole]
0.61	O=C(CC(F)(F)F)Nc1ccc2c(c1)nc(CN1CCC(c3cccc(OCc4ccc(Cl)cc4F)n3)CC1)n2C[C@@H]1CCO1 [Compound 150a, N-{2-[(4-{6-[(4-chloro-2-fluorophenyl)methoxy]pyridin-2-yl}piperidin-1-yl)methyl]-1-{[(2S)-oxetan-2-yl]methyl}-1H-1,3-benzodiazol-5-yl}-3,3,3-trifluoropropanamide]
0.8	O=C(Nc1ccc2c(c1)nc(CN1CCC(c3cccc(OCc4ccc(Cl)cc4F)n3)CC1)n2C[C@@H]1CCO1)C1CCCC1 [Compound 151a, N-{2-[(4-{6-[(4-chloro-2-fluorophenyl)methoxy]pyridin-2-yl}piperidin-1-yl)methyl]-1-{[(2S)-oxetan-2-yl]methyl}-1H-1,3-benzodiazol-5-yl}cyclopentanecarboxamide]
0.88	O=C(Nc1ccc2c(c1)nc(CN1CCC(c3cccc(OCc4ccc(Cl)cc4F)n3)CC1)n2C[C@@H]1CCO1)C1CC(F)(F)C1 [Compound 152a, N-{2-[(4-{6-[(4-chloro-2-fluorophenyl)methoxy]pyridin-2-yl}piperidin-1-yl)methyl]-1-{[(2S)-oxetan-2-yl]methyl}-1H-1,3-benzodiazol-5-yl}-3,3-difluorocyclobutane-1-carboxamide]
0.3	O=C(Nc1ccc2c(c1)nc(CN1CCC(c3cccc(OCc4ccc(Cl)cc4F)n3)CC1)n2C[C@@H]1CCO1)C1CCOCC1 [Compound 153a, N-{2-[(4-{6-[(4-chloro-2-fluorophenyl)methoxy]pyridin-2-yl}piperidin-1-yl)methyl]-1-{[(2S)-oxetan-2-yl]methyl}-1H-1,3-benzodiazol-5-yl}oxane-4-carboxamide]
0.13	O=C(Nc1ccc2c(c1)nc(CN1CCC(c3cccc(OCc4ccc(Cl)cc4F)n3)CC1)n2C[C@@H]1CCO1)C1CCCOC1 (stereo partly drawn) [Compound 154a, N-{2-[(4-{6-[(4-chloro-2-fluorophenyl)methoxy]pyridin-2-yl}piperidin-1-yl)methyl]-1-{[(2S)-oxetan-2-yl]methyl}-1H-1,3-benzodiazol-5-yl}oxane-3-carboxamide]
1	O=C(Nc1ccc2c(c1)nc(CN1CCC(c3cccc(OCc4ccc(Cl)cc4F)n3)CC1)n2C[C@@H]1CCO1)C1CCCCO1 (stereo partly drawn) [Compound 155a, N-{2-[(4-{6-[(4-chloro-2-fluorophenyl)methoxy]pyridin-2-yl}piperidin-1-yl)methyl]-1-{[(2S)-oxetan-2-yl]methyl}-1H-1,3-benzodiazol-5-yl}oxane-2-carboxamide]
